Experimental data taken from ChEMBL document CHEMBL1287790, “Design, synthesis and SAR of thienopyridines as potent CHK1 inhibitors” (Bioorg Med Chem Lett, 2010).

Biological target: T1, Serine/threonine-protein kinase Chk1 (Homo sapiens, UniProt O14757)
T1 sequence (O14757 whole entry): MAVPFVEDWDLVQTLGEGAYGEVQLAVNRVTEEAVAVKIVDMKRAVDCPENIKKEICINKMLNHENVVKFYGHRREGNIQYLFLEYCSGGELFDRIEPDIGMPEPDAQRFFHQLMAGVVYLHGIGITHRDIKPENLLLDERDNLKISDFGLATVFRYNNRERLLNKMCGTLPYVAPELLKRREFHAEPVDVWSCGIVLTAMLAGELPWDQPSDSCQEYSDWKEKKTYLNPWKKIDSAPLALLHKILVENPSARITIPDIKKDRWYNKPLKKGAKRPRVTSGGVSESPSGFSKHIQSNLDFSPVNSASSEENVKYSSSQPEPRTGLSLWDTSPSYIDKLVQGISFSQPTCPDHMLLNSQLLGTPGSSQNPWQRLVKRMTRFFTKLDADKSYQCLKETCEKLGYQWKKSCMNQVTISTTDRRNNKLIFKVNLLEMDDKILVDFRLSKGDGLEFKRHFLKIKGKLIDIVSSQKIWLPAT
Assay: Inhibition of His-tagged CHK1 after 2 hrs by liquid scintillation counting

NC(=O)c1cnc(N[C@H]2CCCNC2)c2cc(-c3ccc(F)cc3)sc12
IC50: 5 nM

NC(=O)c1ccc(-c2cc3c(N[C@H]4CCCNC4)ncc(C(N)=O)c3s2)cc1
IC50: 1 nM

NC(=O)Nc1sc(-c2ccc(Cl)cc2)cc1C(=O)NC1CCCCC1
IC50: 2 nM

NC(=O)c1cnc(N2CCC[C@@H](N)C2)c2cc(-c3ccc(Cl)cc3)sc12
IC50: 148 nM

NC(=O)c1cnc(N[C@H]2CCCNC2)c2cc(-c3cccc(N)c3)sc12
IC50: 2 nM

NC(=O)c1cnc(N[C@H]2CCCNC2)c2cc(-c3ncccn3)sc12
IC50: 60 nM

NC(=O)c1cnc(N[C@H]2CCCNC2)c2cc(-c3cc(F)cc(F)c3)sc12
IC50: 5 nM

NC(=O)c1cnc(N[C@H]2CCCNC2)c2cc(-c3ccc(Oc4ccccc4)cc3)sc12
IC50: 4 nM

NC(=O)c1cnc(NCC2CCCCN2)c2cc(-c3ccc(Cl)cc3)sc12 (centres undefined)
IC50: 292 nM

NC(=O)c1cnc(NC2CNC2)c2cc(-c3ccc(Cl)cc3)sc12
IC50: 707 nM

NC(=O)c1cnc(N[C@H]2CCCNC2)c2cc(-c3ccc4[nH]ccc4c3)sc12
IC50: 60 nM

NC(=O)c1cnc(N[C@H]2CCCNC2)c2cc(-c3ccccc3)sc12
IC50: 4 nM

N#Cc1cccc(-c2cc3c(N[C@H]4CCCNC4)ncc(C(N)=O)c3s2)c1
IC50: 7 nM

NC(=O)c1cnc(N[C@H]2CCCNC2)c2cc(-c3ccc(F)c(F)c3)sc12
IC50: 2 nM

NC(=O)c1cnc(N[C@H]2CCCNC2)c2cc(-c3cccnc3)sc12
IC50: 5 nM

NC(=O)c1cnc(N[C@H]2CCCNC2)c2cc(-c3ccc4sccc4c3)sc12
IC50: 4 nM

NC(=O)c1cnc(N[C@@H]2CCCNC2)c2cc(-c3ccc(Cl)cc3)sc12
IC50: 211 nM

NC(=O)c1cnc(N[C@H]2CCCNC2)c2cc(-c3ccncc3)sc12
IC50: 3 nM

CNCCNc1ncc(C(N)=O)c2sc(-c3ccc(Cl)cc3)cc12
IC50: 7 nM

NC(=O)c1cnc(N[C@H]2CCCNC2)c2cc(-c3ccc4cc[nH]c4c3)sc12
IC50: 16 nM

NC(=O)c1cnc(N[C@H]2CCCCNC2)c2cc(-c3ccc(Cl)cc3)sc12
IC50: 3 nM

COc1ccccc1-c1cc2c(N[C@H]3CCCNC3)ncc(C(N)=O)c2s1
IC50: 19 nM

COc1ccc(F)cc1-c1cc2c(N[C@H]3CCCNC3)ncc(C(N)=O)c2s1
IC50: 24 nM

NC(=O)c1cnc(N[C@H]2CCCNC2)c2nc(-c3ccc(Cl)cc3)sc12
IC50: 9 nM

NC(=O)c1cnc(N[C@H]2CCNC2)c2cc(-c3ccc(Cl)cc3)sc12
IC50: 14 nM

Cn1ccc2cc(-c3cc4c(N[C@H]5CCCNC5)ncc(C(N)=O)c4s3)ccc21
IC50: 8 nM

NC(=O)c1cnc(N[C@H]2CCCNC2)c2cc(-c3cccc(CO)c3)sc12
IC50: 3 nM

NC(=O)c1cnc(N[C@H]2CCCNC2)c2cc(-c3ccc(C(F)(F)F)cc3)sc12
IC50: 5 nM

NC(=O)c1cnc(N[C@H]2CCCNC2)c2cc(-c3cc4ccccc4o3)sc12
IC50: 2 nM

NC(=O)c1cnc(N[C@H]2CCCNC2)c2cc(-c3cccc4[nH]ccc34)sc12
IC50: 5 nM

NC(=O)c1cnc(N[C@H]2CCCNC2)c2cc(-c3ccc4ncccc4c3)sc12
IC50: 5 nM

COc1ccc(-c2cc3c(N[C@H]4CCCNC4)ncc(C(N)=O)c3s2)cc1
IC50: 3 nM

NC(=O)c1cnc(N[C@H]2CCCNC2)c2ccsc12
IC50: 717 nM

NC(=O)c1cnc(N[C@H]2CCCNC2)c2cc(-c3cccc(N4CCCC4)c3)sc12
IC50: 3 nM

NC(=O)c1cnc(N[C@H]2CCCNC2)c2cc(-c3ccccc3Cl)sc12
IC50: 21 nM

CN(C)S(=O)(=O)c1ccc(-c2cc3c(N[C@H]4CCCNC4)ncc(C(N)=O)c3s2)cc1
IC50: 16 nM

NC(=O)c1cnc(N[C@H]2CCCNC2)c2sc(-c3ccc(Cl)cc3)cc12
IC50: 4580 nM

CN(C)C(=O)c1ccc(-c2cc3c(N[C@H]4CCCNC4)ncc(C(N)=O)c3s2)cc1
IC50: 1 nM

NC(=O)c1cnc(N[C@H]2CCCNC2)c2cc(Br)sc12
IC50: 56 nM

NC(=O)Nc1sc(-c2ccc(Cl)cc2)cc1C(=O)N1CCCC[C@H](N)C1
IC50: 746 nM

NC(=O)c1cnc(N[C@H]2CCCNC2)c2cc(-c3cccc(Cl)c3)sc12
IC50: 4 nM

NC(=O)c1cnc(N[C@H]2CCCNC2)c2cc(-c3ccc(Cl)c(F)c3)sc12
IC50: 9 nM

CS(=O)(=O)c1ccc(-c2cc3c(N[C@H]4CCCNC4)ncc(C(N)=O)c3s2)cc1
IC50: 2 nM

CN(C)S(=O)(=O)c1cccc(-c2cc3c(N[C@H]4CCCNC4)ncc(C(N)=O)c3s2)c1
IC50: 20 nM

NC(=O)c1cnc(NC[C@@H]2CSCN2)c2cc(-c3ccc(Cl)cc3)sc12
IC50: 937 nM

COc1ccc(-c2cc3c(N[C@H]4CCCNC4)ncc(C(N)=O)c3s2)cn1
IC50: 3 nM

NC(=O)c1cnc(N[C@@H]2CCCC[C@H]2N)c2cc(-c3ccc(Cl)cc3)sc12
IC50: 27100 nM

NC(=O)c1cnc(N[C@H]2CCCNC2)c2cc(C#Cc3cccnc3)sc12
IC50: 67 nM

NC(=O)c1cnc(N[C@H]2CCCNC2)c2cc(-c3ccc(OC(F)(F)F)cc3)sc12
IC50: 9 nM

NC(=O)c1cnc(N[C@H]2CCCNC2)c2cc(-c3ccc(F)cc3F)sc12
IC50: 9 nM

CC(=O)Nc1cccc(-c2cc3c(N[C@H]4CCCNC4)ncc(C(N)=O)c3s2)c1
IC50: 2 nM

NC(=O)c1cnc(N[C@H]2CCCNC2)c2cc(-c3cnc4ccccc4c3)sc12
IC50: 34 nM

NC(=O)c1cnc(NC[C@@H]2CCCN2)c2cc(-c3ccc(Cl)cc3)sc12
IC50: 197 nM

NC(=O)c1cnc(N[C@H]2CCCNC2)c2cc(-c3ccc(F)c(Cl)c3)sc12
IC50: 4 nM
